Measurements: ChEMBL document CHEMBL5518218, “Discovery of Novel PD-L1 Small-Molecular Inhibitors with Potent In Vivo Anti-tumor Immune Activity” (J Med Chem, 2024)
The source made the active and inactive calls. No cut-off for these calls is given here.

Legend:
[1] = Prodrug conversion in C57BL/6 mouse assessed as Tmax of (2-(benzo[c][1,2,5]oxadiazol-5-ylmethoxy)-5-chloro-4-((2-fluoro-3'-(3-(4-hydroxypiperidin-1-yl)propoxy)-[1,1'-biphenyl]-3-yl)methoxy)benzyl)-D-serine at 10 mg/kg, po measured upto 24 hrs by LC-MS/MS analysis; assay type: ADME, organism-based; conditions: in vivo
CT26 = assay: Antitumor activity against mouse CT26 cells implanted in BALB/c mouse assessed as increase in INF-gamma level at 25 mg/kg, ip measured for 20 days; assay type: functional, organism-based; conditions: time 20.0 day
MC-38 [2] = assay: Antitumor activity against mouse MC38 cells implanted in C57BL/6J mouse assessed as tumor growth inhibition at 25 mg/kg, po measured for 20 days; assay type: functional; conditions: MC-38, 480 h, time 20 day, read-out: TGI
[3] = Prodrug conversion in C57BL/6 mouse assessed as Tmax of (2-(benzo[c][1,2,5]oxadiazol-5-ylmethoxy)-5-chloro-4-((2-fluoro-3'-(3-(4-hydroxypiperidin-1-yl)propoxy)-[1,1'-biphenyl]-3-yl)methoxy)benzyl)-D-serine at 2 mg/kg, iv measured upto 24 hrs by LC-MS/MS analysis; assay type: ADME, organism-based; conditions: in vivo
[4] = Acute toxicity in mouse assessed as signs of distress at 1000 mg/kg, po administered as single dose for 14 days; assay type: organism-based; conditions: in vivo, 336 h, time 14 day
[5] = Prodrug conversion in Sprague-Dawley rat assessed as AUC (0 to t) of (2-(benzo[c][1,2,5]oxadiazol-5-ylmethoxy)-5-chloro-4-((2-fluoro-3'-(3-(4-hydroxypiperidin-1-yl)propoxy)-[1,1'-biphenyl]-3-yl)methoxy)benzyl)-D-serine at 9 mg/kg, iv measured upto 24 hrs by LC-MS/MS analysis; assay type: ADME, organism-based; conditions: in vivo
[6] = Prodrug conversion in Sprague-Dawley rat assessed as oral bioavailability of (2-(benzo[c][1,2,5]oxadiazol-5-ylmethoxy)-5-chloro-4-((2-fluoro-3'-(3-(4-hydroxypiperidin-1-yl)propoxy)-[1,1'-biphenyl]-3-yl)methoxy)benzyl)-D-serine at 45 mg/kg measured upto 24 hrs by LC-MS/MS analysis; assay type: ADME, organism-based; conditions: in vivo
MC-38 [7] = assay: Cytotoxicity against mouse MC38 cells assessed as effect on cell viability at 0.07 to 150 uM incubated for 48 hrs by CCK-8 assay; assay type: functional, cell-based; conditions: dose 0.07-150 µM
[8] = Water solubility of the compound; assay type: physicochemical
MC-38 [9] = assay: Antitumor activity against mouse MC38 cells implanted in po dosed C57BL/6J mouse assessed as reduction in tumor growth; assay type: functional, organism-based; conditions: dose 5-25 mg/kg
[10] = Prodrug conversion in Sprague-Dawley rat assessed as Cmax of (2-(benzo[c][1,2,5]oxadiazol-5-ylmethoxy)-5-chloro-4-((2-fluoro-3'-(3-(4-hydroxypiperidin-1-yl)propoxy)-[1,1'-biphenyl]-3-yl)methoxy)benzyl)-D-serine at 9 mg/kg, iv measured upto 24 hrs by LC-MS/MS analysis; assay type: ADME, organism-based; conditions: in vivo

CCOC(=O)[C@@H](CO)NCc1cc(Cl)c(OCc2cccc(-c3cccc(OCCCN4CCC(O)CC4)c3)c2F)cc1OCc1ccc2nonc2c1.Cl.Cl
Tmax [1]: 42 min
Activity (CT26): Active
inhibition in vivo at 25 mg/kg (MC-38 [2]): 73.6%
Tmax [3]: 4.8 min
Activity [4]: Non-Toxic
AUCt [5]: 2373.5 ng·h/mL
F [6]: 3.4%
Activity (MC-38 [7]): inactive
solubility [8]: 9.52 µM
Activity (MC-38 [9]): Dose-Dependent Effect
Cmax [10]: 3760.7 ng/mL
